Results from US11447504B2, “Macrocyclic chlorine substituted indole derivatives” (Bayer Aktiengesellschaft, priority 2017, dated 2022).
Where a name gives a salt, the structure may show the parent alone. Read-outs that look alike come from different tables or passages of the source.

What was measured:
[1] = tested on: SUDHL5
[2] = tested on: SUDHL5; experiment: Antiproliferation assay 7, SUDHL5; format: cell-based; conditions: SUDHL5 cells, 72 hours, CellTiter-Glo; read-out: Antiproli SUDHL5 IC50 (median)
Procedure, shortened: (§1)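 CellTiter-Glo luminescence readout; 72 h compound exposure, 37° C, humidified. Day 0 reference plate read at plating for time-zero baseline.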

[3] = target: SUDHL5; experiment: Induction of caspase-3/7 activity (Assay 4), SUDHL5; format: cell-based; conditions: SUDHL5 cells, 3 hours, Caspase-Glo 3/7; read-out: Caspase SUDHL5 EC50 (median)
Procedure, shortened: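 DLBCL cells treated with compounds for 3 hours at 37° C. Caspase-3/7 activity measured by Caspase-Glo 3/7 luminescence, with medium-only background subtracted.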

[4] = target: T1, MCL-1 (Homo sapiens (Human), UniProt Q07820, K194A/K197A/R201A); experiment: Protein-protein interaction assay MCL-1/Noxa BH3 peptide (MCL-1 Assay, TR-FRET); format: binding; conditions: read-out: MCL-1 Assay IC50 (median)
T1 sequence (Q07820 whole entry K194A/K197A/R201A, looked up): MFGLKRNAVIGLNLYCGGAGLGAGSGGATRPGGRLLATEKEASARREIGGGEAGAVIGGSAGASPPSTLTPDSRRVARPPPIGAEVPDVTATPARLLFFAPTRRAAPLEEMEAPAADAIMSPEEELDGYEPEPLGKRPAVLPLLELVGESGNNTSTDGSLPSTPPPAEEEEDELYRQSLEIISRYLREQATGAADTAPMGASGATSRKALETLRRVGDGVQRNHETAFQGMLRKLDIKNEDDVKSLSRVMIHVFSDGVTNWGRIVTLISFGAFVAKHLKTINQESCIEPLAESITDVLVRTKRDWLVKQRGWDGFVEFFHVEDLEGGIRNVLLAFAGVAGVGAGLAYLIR

[5] = tested on: SUDHL10
[6] = target: SUDHL10; experiment: Induction of caspase-3/7 activity (Assay 4), SUDHL10; format: cell-based; conditions: SUDHL10 cells, 3 hours, Caspase-Glo 3/7; read-out: Caspase SUDHL10 EC50 (median)
Procedure, shortened: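 Luminescent Caspase-Glo 3/7 read-out after a 3 h, 37 °C compound exposure of the DLBCL line SUDHL10. Values are background-corrected using medium-only wells.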

[7] = tested on: SUDHL10; experiment: Antiproliferation assay 7, SUDHL10; format: cell-based; conditions: SUDHL10 cells, 72 hours, CellTiter-Glo; read-out: Antiproli SUDHL10 IC50 (median)
Procedure, shortened: as §1

[8] = tested on: SK-BR-3; experiment: Antiproliferation assay 7, SK-BR-3; format: cell-based; conditions: SK-BR-3 cells, 72 hours, CellTiter-Glo; read-out: Antiproli SK-BR-3 IC50 median
Method: (§2) Assessment of the Anti-Proliferative Effect of Compounds in Different Cell Lines
(§3) The impact of compounds on the proliferation of different cell lines was assessed using the CellTiter-Glo® Luminescent Cell Viability reagent from Promega (G7573).
(§4) In parallel, cells were plated in a reference (day 0) plate for time zero determination.
(§5) Rim wells were excluded. The cells were incubated for 72 hours in a humidified incubator at 37° C. The day 0 plate was measured by adding 30 μL/well of CTG solution (CellTiter-Glo® Luminescent Cell Viability reagent, Promega G7573) to time zero wells in the reference plate followed by a 10 minutes incubation and luminescence reading at 0.1 ms. using the PHERAstar FS microplate reader (BMG Labtech).
(§6) After 72 hours incubation, the treated plates were measured in the same way as the day 0 plate mentioned above.

[9] = tested on: MV-4-11; experiment: Antiproliferation assay 7, MV-4-11; format: cell-based; conditions: MV-4-11 cells, 72 hours, CellTiter-Glo; read-out: Antiproli MV-4-11 IC50 median
Procedure, shortened: as §1

[10] = tested on: AMO-1; experiment: Antiproliferation assay 7, AMO-1; format: cell-based; conditions: AMO-1 cells, 72 hours, CellTiter-Glo; read-out: Antiproli AMO-1 IC50 median
Procedure, shortened: as §1

[11] = tested on: HMC-1-8; experiment: Antiproliferation assay 7, HMC-1-8; format: cell-based; conditions: HMC-1-8 cells, 72 hours, CellTiter-Glo; read-out: Antiproli HMC-1-8 IC50 median
Procedure, shortened: as §1

[12] = target: BCL-2 (Homo sapiens (Human), UniProt P10415); experiment: Protein-protein interaction assay BCL-2/Bad BH3 peptide (BCL-2 Assay, TR-FRET); format: binding; conditions: read-out: BCL-2 Assay IC50 (median)
Chain of BCL-2 (P10415 other isoform, or with tags, fused parts or gaps): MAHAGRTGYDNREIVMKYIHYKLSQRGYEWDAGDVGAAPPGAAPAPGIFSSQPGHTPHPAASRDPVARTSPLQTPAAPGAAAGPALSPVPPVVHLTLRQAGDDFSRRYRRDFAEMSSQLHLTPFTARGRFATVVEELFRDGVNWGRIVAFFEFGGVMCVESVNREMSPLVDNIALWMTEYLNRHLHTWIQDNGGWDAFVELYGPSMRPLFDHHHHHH
Method: The dose-dependent inhibition by the compounds described in this invention of the interaction between BCL-2 and the BH3 domain of Bad (both human) was determined using a steady state binding competition assay with time-resolved fluorescence energy transfer (TR-FRET) readout.
(§7) For that, 100-fold concentrated DMSO solutions were prepared by serial dilutions (1:3.4) of a 2 mM stock solution in a clear, 384-well microtiter plate (Greiner Bio-One, Frickenhausen, Germany). From there, 50 nl were transferred in a dark test plate (Greiner Bio-One, Frickenhausen, Germany). […] This was followed by a 10-minute incubation step at 22° C. for pre-equilibration of the putative complex between His-BCL-2 and the compounds.
The mixture was incubated in the dark for one hour at 22° C. and then overnight at 4° C.
(§8) The resulting data (ratio) were normalized, taking 0% inhibition as the mean value of control measurements (usually 32 data points) where all reagents were included. In this case 50 nl DMSO were used instead of compounds. […] IC50 values were determined by regression analysis based on a 4 parameter equation (minimum, maximum, IC50, Hill; Y=Max+(Min−Max)/(1+(X/IC50)^Hill) using the Screener Software (Genedata).

[13] = target: BCL-XL (Homo sapiens (Human), UniProt Q07817); experiment: Protein-protein interaction assay BCL-XL/Bad BH3 peptide (BCL-XL Assay, TR-FRET); format: binding; conditions: read-out: BCL-XL Assay IC50 (median)
Chain of BCL-XL (Q07817 other isoform, or with tags, fused parts or gaps): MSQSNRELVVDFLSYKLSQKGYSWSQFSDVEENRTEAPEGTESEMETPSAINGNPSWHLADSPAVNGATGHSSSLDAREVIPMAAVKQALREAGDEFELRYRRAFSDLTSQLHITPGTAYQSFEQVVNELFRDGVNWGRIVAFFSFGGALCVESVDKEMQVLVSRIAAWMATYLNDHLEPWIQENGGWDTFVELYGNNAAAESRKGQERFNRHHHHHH
Method: Assay 2 Protein-Protein Interaction Assay: BCL-XL/Bad BH3 Peptide (BCL-XL Assay)
The dose-dependent inhibition by the compounds described in this invention of the interaction between BCL-XL and the BH3 domain of Bad (both human) was determined using a steady state binding competition assay with time-resolved fluorescence energy transfer (TR-FRET) readout.
as §7, with “His-BCL-XL” for “His-BCL-2”
The mixture was incubated in the dark for one hour at 22° C. and then overnight at 4° C. The formation of BCL-XL/Bad complexes was determined by measuring the resonance energy transfer of the anti-His- Eu-cryptate antibody to the streptavidin-XL665 present in the reaction.
as §8

[14] = tested on: SUDHL10; experiment: Induction of cytotoxicity (Assay 6), SUDHL10; conditions: read-out: Cytotox SUDHL10 IC50 (median); SUDHL10 cells, 5 hours, CellTiter-Glo
[15] = tested on: NCI-H23; experiment: Antiproliferation assay 7, NCI-H23; format: cell-based; conditions: NCI-H23 cells, 72 hours, CellTiter-Glo; read-out: Antiproli NCI-H23 IC50 median
Method: as §2, §3, §4, §5, §6

[16] = tested on: A2058; experiment: Antiproliferation assay 7, A2058; format: cell-based; conditions: A2058 cells, 72 hours, CellTiter-Glo; read-out: Antiproli A2058 IC50 median
Method: as §2, §3, §4, §5, §6

[17] = tested on: SUDHL5; experiment: Induction of cytotoxicity (Assay 6), SUDHL5; conditions: read-out: Cytotox SUDHL5 IC50 (median); SUDHL5 cells, 5 hours, CellTiter-Glo
[18] = target: T1, MCL-1; experiment: Protein-compound interaction assay (SPR assay 8); format: binding; conditions: immobilized MBP-MCL-1, 25° C.
Text: Assay 8 Protein-Compound Interaction Assay (SPR Assay)
The ability of the compounds described in this invention to bind to MCL-1 may be determined using surface plasmon resonance (SPR). This allows for the quantification of binding in terms of the equilibrium dissociation constant (KD [M]), as well as association and dissociation rate constants (kon [1/M 1/s] and koff [1/s], respectively). The measurements may be performed using Biacore® T200 or Biacore® S200 instruments (GE Healthcare).
MBP-MCL-1 was diluted in 1×PBS-P+ (GE Healthcare) and injected on the activated chip surface. Subsequently, a solution of 1 M ethanolamine-HCl (GE Healthcare) was injected to block unreacted groups, resulting in approximately 400-2500 response units (RU) of immobilized protein. A reference surface was generated by treatment with NHS-EDC and ethanolamine-HCl.
The double-referenced sensorgrams were fit to a simple reversible Langmuir 1:1 reaction mechanism as implemented in the Biacore® T200 and S200 evaluation software (T200 evaluation software version 2.0 and S200 evaluation software version 1.0, GE Healthcare).

Compound	IC50 [1]	IC50 [2]	EC50 [3]	IC50 [4]	IC50 [5]	EC50 [6]	IC50 [7]	IC50 [8]	IC50 [9]	IC50 [10]	IC50 [11]	IC50 [12]	IC50 [13]	IC50 [14]	IC50 [15]	IC50 [16]	IC50 [17]	koff (geo mean) [18]	kon (geo mean) [18]	Kd ([18]; read-out: KD (geo mean))
Cc1nn(C)c2c1-c1cccc3c(CCCOc4cccc5ccccc45)c(C(=O)O)n(c13)CCCCN2 [Example 70, (rac)-9,11-dimethyl-1-[3-(1-naphthyloxy)propyl]-4,5,6,7,8,9-hexahydropyrazolo[4′,3′:4,5][1,6]diazecino[3,2,1-hi]indole-2-carboxylic Acid]	> 33000 nM	> 33000 nM	> 33000 nM	43 nM	> 33000 nM	29000 nM	15000 nM													
Cc1nn(C)c2c1-c1cccc3c(CCCOc4cccc5ccccc45)c(C(=O)O)n(c13)CCCCN2Cc1ccccc1 [Example 69, (rac)-8-benzyl-9,11-dimethyl-1-[3-(1-naphthyloxy)propyl]-4,5,6,7,8,9-hexahydropyrazolo[4′,3′:4,5][1,6]diazecino[3,2,1-hi]indole-2-carboxylic Acid]	21000 nM	14000 nM	> 33000 nM	350 nM	32000 nM	22000 nM	6300 nM													
(rac)-4-chloro-3-ethyl-1-[2-(morpholin-4-yl)ethyl]-7-[3-(naphthalen-1-yloxy)propyl]-1,10,11,12,13,15-hexahydropyrazolo[4′,3′:9,10][1,6]oxazacycloundecino[8,7,6-hi]indole-8-carboxylic Acid [Example 8]	350 nM	470 nM	290 nM	0.89 nM	450 nM	360 nM		3000 nM	1100 nM	1180 nM										
(rac)-4-chloro-14-(2,2-difluoroethyl)-3-ethyl-7-{3-[(6-fluoronaphthalen-1-yl)oxy]propyl}-2-methyl-10,11,12,13,14,15-hexahydro-2H-pyrazolo[3′,4′:8,9][1,6]diazacycloundecino[10,11,1-hi]indole-8-carboxylic Acid [Example 62]	330 nM		270 nM	2.7 nM																
(rac)-4-chloro-12,12-difluoro-2,3-dimethyl-7-{3-[(naphthalen-1-yl)oxy]propyl}-2,10,11,12,13,15-hexahydropyrazolo[4′,3′:9,10][1,6]oxazacycloundecino[8,7,6-hi]indole-8-carboxylic Acid [Example 55]	840 nM	620 nM	510 nM	2.3 nM	2000 nM	1500 nM				1710 nM	5750 nM	18800 nM	> 20000 nM							
Cc1c2c(nn1C)COCCCCn1c(C(=O)O)c(CCCOc3cccc4ccccc34)c3ccc(Cl)c-2c31 (single isomer, unassigned; enantiomer 1) [Example 26, 4-chloro-2,3-dimethyl-7-[3-(naphthalen-1-yloxy)propyl]-2,10,11,12,13,15-hexahydropyrazolo-[4′,3′:9,10][1,6]oxazacycloundecino[8,7,6-hi]indole-8-carboxylic acid-N-ethylethanamine Salt (Enantiomer 1)]		580 nM	350 nM			410 nM		3300 nM	1810 nM	996 nM	2890 nM			500 nM	2320 nM	14900 nM	460 nM			
4-chloro-3-ethyl-1-[2-(morpholin-4-yl)ethyl]-7-[3-(naphthalen-1-yloxy)propyl]-1,10,11,12,13,15-hexahydropyrazolo[4′,3′:9,10][1,6]oxazacycloundecino[8,7,6-hi]indole-8-carboxylic acid-N-ethylethanamine Salt (Enantiomer 1) [Example 9]		370 nM	270 nM	0.47 nM		330 nM	270 nM	1080 nM	823 nM	874 nM		> 20000 nM	> 20000 nM	340 nM			290 nM	0.0096 s⁻¹	8.7E6 1/M 1/s	1.1 nM
